Measured values: patent US20160038505A1, “METHODS AND COMPOSITIONS FOR TREATING IMPULSE CONTROL DISORDER, ANXIETY-RELATED DISORDERS, VIOLENCE AND/OR ANGER, OR REGULATING FOOD INTAKE” (priority 2014, published 2016)
Entries after “also recorded” stand apart in the source; their conditions may differ.

Experiments:
Sprague-Dawley rat = experiment: Food maintained responding test, regulation of food intake in rats; format: in vivo
[1] = system: opioid-dependent participants; experiment: Treatment emergent adverse events in opioid-dependent participants (Phase IB); format: in vivo, human
Description: This example is to illustrate that noribogaine can be administered at a therapeutic dosing while maintaining an acceptable QT interval.
See PCT Application No. PCT/US2013/069235, filed Nov. 8, 2013, which is incorporated herein by reference in its entirety.
(§1) Three cohorts of nine (9) subjects (6 administered noribogaine and 3 administered placebo in each cohort) were evaluated for tolerability, pharmacokinetics, and efficacy. Cohort 1 received a single dose of 60 mg noribogaine or placebo. Cohort 2 received a single dose of 120 mg noribogaine or placebo. Cohort 3 received a single dose of 180 mg noribogaine or placebo.

[2] = Serum pharmacokinetics in opioid-dependent patients (Phase IB); format: in vivo, human; set-up: unit not given here
Description: as §1
FIG. 4 indicates the serum noribogaine concentration over time for each cohort.

CC[C@H]1CC2C[C@H]3c4[nH]c5ccc(O)cc5c4CCN(C2)C13 [noribogaine]
decrease in food intake (Sprague-Dawley rat; 25 mg/kg PO, P<0.05): 10% | decrease in food intake (Sprague-Dawley rat; 50 mg/kg PO, P<0.001): 25% | effect on food consumption compared to vehicle (Sprague-Dawley rat; noribogaine 12.5 mg/kg PO 2 hours prior to test): no significant effect; also recorded: no effect on food consumption | effect on food consumption compared to vehicle (Sprague-Dawley rat; noribogaine 25 mg/kg PO 2 hours prior to test, P<0.05): significantly decreased food consumption | effect on food consumption compared to vehicle (Sprague-Dawley rat; noribogaine 50 mg/kg PO 2 hours prior to test, P<0.001): significantly decreased food consumption | Adverse event: Catheter Site Infection ([1]; 60 mg (N = 6)): 0 | Adverse event: Catheter Site Pain ([1]; 60 mg (N = 6)): 0 | Adverse event: Catheter Site Related Reaction ([1]; 60 mg (N = 6)): 0 | Adverse event: Cellulitis ([1]; 60 mg (N = 6)): 0 | Adverse event: Diarrhoea ([1]; 60 mg (N = 6)): 0 | Adverse event: Dry Mouth ([1]; 60 mg (N = 6)): 0 | Adverse event: Ear and Labyrinth Disorders ([1]; 60 mg (N = 6)): 0 | Adverse event: Epistaxis ([1]; 60 mg (N = 6)): 0 | Adverse event: Euphoric Mood ([1]; 60 mg (N = 6)): 0 | Adverse event: General Disorders and Administration Site Conditions ([1]; 60 mg (N = 6)): 0 | Adverse event: Hyperaesthesia ([1]; 60 mg (N = 6)): 0 | Adverse event: Infections and Infestations ([1]; 60 mg (N = 6)): 0 | Adverse event: Limb Discomfort ([1]; 60 mg (N = 6)): 0 | Adverse event: Malaise ([1]; 60 mg (N = 6)): 0 | Adverse event: Nausea ([1]; 60 mg (N = 6)): 0 | Adverse event: Oropharyngeal Pain ([1]; 60 mg (N = 6)): 0 | Adverse event: Pseudoparalysis ([1]; 60 mg (N = 6)): 0 | Adverse event: Respiratory, Thoracic and Mediastinal Disorders ([1]; 60 mg (N = 6)): 0 | Adverse event: Rhinorrhoea ([1]; 60 mg (N = 6)): 0 | Adverse event: Skin Discomfort ([1]; 60 mg (N = 6)): 0 | Adverse event: Skin Irritation ([1]; 60 mg (N = 6)): 0 | Adverse event: Skin and Subcutaneous Tissue Disorders ([1]; 60 mg (N = 6)): 0 | Adverse event: Somnoience ([1]; 60 mg (N = 6)): 0 | Adverse event: Tinnitus ([1]; 60 mg (N = 6)): 0 | Adverse event: Tremor ([1]; 60 mg (N = 6)): 0 | Adverse event: Urinary Tract Infection ([1]; 60 mg (N = 6)): 0 | Adverse event: Vomiting ([1]; 60 mg (N = 6)): 0 | Adverse event: Back Pain ([1]; 120 mg (N = 6)): 0 | Adverse event: Catheter Site Infection ([1]; 120 mg (N = 6)): 0 | Adverse event: Catheter Site Related Reaction ([1]; 120 mg (N = 6)): 0 | Adverse event: Depressed Mood ([1]; 120 mg (N = 6)): 0 | Adverse event: Dry Eye ([1]; 120 mg (N = 6)): 0 | Adverse event: Dyspepsia ([1]; 120 mg (N = 6)): 0 | Adverse event: Euphoric Mood ([1]; 120 mg (N = 6)): 0 | Adverse event: Limb Discomfort ([1]; 120 mg (N = 6)): 0 | Adverse event: Malaise ([1]; 120 mg (N = 6)): 0 | Adverse event: Musculoskeletal and Connective Tissue Disorders ([1]; 120 mg (N = 6)): 0 | Adverse event: Psychiatric Disorders ([1]; 120 mg (N = 6)): 0 | Adverse event: Somnoience ([1]; 120 mg (N = 6)): 0 | Adverse event: Urinary Tract Infection ([1]; 120 mg (N = 6)): 0 | Adverse event: Catheter Site Infection ([1]; 180 mg (N = 6)): 0 | Adverse event: Catheter Site Pain ([1]; 180 mg (N = 6)): 0 | Adverse event: Depressed Mood ([1]; 180 mg (N = 6)): 0 | Adverse event: Diarrhoea ([1]; 180 mg (N = 6)): 0 | Adverse event: Dry Eye ([1]; 180 mg (N = 6)): 0 | Adverse event: Dyspepsia ([1]; 180 mg (N = 6)): 0 | Adverse event: Ear and Labyrinth Disorders ([1]; 180 mg (N = 6)): 0 | Adverse event: Epistaxis ([1]; 180 mg (N = 6)): 0 | Adverse event: Euphoric Mood ([1]; 180 mg (N = 6)): 0 | Adverse event: Hyperaesthesia ([1]; 180 mg (N = 6)): 0 | Adverse event: Malaise ([1]; 180 mg (N = 6)): 0 | Adverse event: Oropharyngeal Pain ([1]; 180 mg (N = 6)): 0 | Adverse event: Pseudoparalysis ([1]; 180 mg (N = 6)): 0 | Adverse event: Psychiatric Disorders ([1]; 180 mg (N = 6)): 0 | Adverse event: Respiratory, Thoracic and Mediastinal Disorders ([1]; 180 mg (N = 6)): 0 | Adverse event: Rhinorrhoea ([1]; 180 mg (N = 6)): 0 | Adverse event: Skin Discomfort ([1]; 180 mg (N = 6)): 0 | Adverse event: Skin Irritation ([1]; 180 mg (N = 6)): 0 | Adverse event: Skin and Subcutaneous Tissue Disorders ([1]; 180 mg (N = 6)): 0 | Adverse event: Somnoience ([1]; 180 mg (N = 6)): 0 | Adverse event: Tinnitus ([1]; 180 mg (N = 6)): 0 | Adverse event: Tremor ([1]; 180 mg (N = 6)): 0 | hallucinatory effects ([1]; 60, 120 or 180 mg single dose): no hallucinatory effects | Serum noribogaine concentration ([2]; 60 mg, time 0): 0 | Serum noribogaine concentration ([2]; 60 mg, time 0.5): 3.75 | Serum noribogaine concentration ([2]; 60 mg, time 1): 17.86 | Serum noribogaine concentration ([2]; 60 mg, time 1.5): 42.54 | Serum noribogaine concentration ([2]; 60 mg, time 2): 53.01 | Serum noribogaine concentration ([2]; 60 mg, time 2.5): 63.71 | Serum noribogaine concentration ([2]; 60 mg, time 3): 72.95 | Serum noribogaine concentration ([2]; 60 mg, time 3.5): 71.43 | Serum noribogaine concentration ([2]; 60 mg, time 4): 72.89 | Serum noribogaine concentration ([2]; 60 mg, time 5): 65.74 | Serum noribogaine concentration ([2]; 60 mg, time 6): 64.47 | Serum noribogaine concentration ([2]; 60 mg, time 7): 58.26 | Serum noribogaine concentration ([2]; 60 mg, time 8): 59.01 | Serum noribogaine concentration ([2]; 60 mg, time 12): 46.10 | Serum noribogaine concentration ([2]; 60 mg, time 16): 37.99 | Serum noribogaine concentration ([2]; 60 mg, time 24): 27.76 | Serum noribogaine concentration ([2]; 60 mg, time 36): 20.32 | Serum noribogaine concentration ([2]; 60 mg, time 48): 14.56 | Serum noribogaine concentration ([2]; 60 mg, time 60): 9.32 | Serum noribogaine concentration ([2]; 60 mg, time 72): 6.55 | Serum noribogaine concentration ([2]; 60 mg, time 96): 3.41 | Serum noribogaine concentration ([2]; 60 mg, time 120): 1.64 | Serum noribogaine concentration ([2]; 60 mg, time 144): 0.89 | Serum noribogaine concentration ([2]; 120 mg, time 0): 0 | Serum noribogaine concentration ([2]; 120 mg, time 0.5): 19.66 | Serum noribogaine concentration ([2]; 120 mg, time 1): 76.04 | Serum noribogaine concentration ([2]; 120 mg, time 1.5): 98.80 | Serum noribogaine concentration ([2]; 120 mg, time 2): 122.67 | Serum noribogaine concentration ([2]; 120 mg, time 2.5): 135.05 | Serum noribogaine concentration ([2]; 120 mg, time 3): 130.55 | Serum noribogaine concentration ([2]; 120 mg, time 3.5): 128.20 | Serum noribogaine concentration ([2]; 120 mg, time 4): 143.90 | Serum noribogaine concentration ([2]; 120 mg, time 5): 128.76 | Serum noribogaine concentration ([2]; 120 mg, time 6): 118.16 | Serum noribogaine concentration ([2]; 120 mg, time 7): 110.76 | Serum noribogaine concentration ([2]; 120 mg, time 8): 102.12 | Serum noribogaine concentration ([2]; 120 mg, time 12): 77.88 | Serum noribogaine concentration ([2]; 120 mg, time 16): 62.24 | Serum noribogaine concentration ([2]; 120 mg, time 24): 44.19 | Serum noribogaine concentration ([2]; 120 mg, time 36): 28.83 | Serum noribogaine concentration ([2]; 120 mg, time 48): 19.54 | Serum noribogaine concentration ([2]; 120 mg, time 60): 10.75 | Serum noribogaine concentration ([2]; 120 mg, time 72): 7.75 | Serum noribogaine concentration ([2]; 120 mg, time 96): 4.66 | Serum noribogaine concentration ([2]; 120 mg, time 120): 2.45 | Serum noribogaine concentration ([2]; 120 mg, time 144): 1.20 | Serum noribogaine concentration ([2]; 180 mg, time 0): 0 | Serum noribogaine concentration ([2]; 180 mg, time 0.5): 10.78 | Serum noribogaine concentration ([2]; 180 mg, time 1): 65.68 | Serum noribogaine concentration ([2]; 180 mg, time 1.5): 134.19 | Serum noribogaine concentration ([2]; 180 mg, time 2): 163.32 | Serum noribogaine concentration ([2]; 180 mg, time 2.5): 179.63 | Serum noribogaine concentration ([2]; 180 mg, time 3): 221.67 | Serum noribogaine concentration ([2]; 180 mg, time 3.5): 236.27 | Serum noribogaine concentration ([2]; 180 mg, time 4): 238.87 | Serum noribogaine concentration ([2]; 180 mg, time 5): 217.26 | Serum noribogaine concentration ([2]; 180 mg, time 6): 197.10 | Serum noribogaine concentration ([2]; 180 mg, time 7): 207.47 | Serum noribogaine concentration ([2]; 180 mg, time 8): 185.55 | Serum noribogaine concentration ([2]; 180 mg, time 12): 159.53 | Serum noribogaine concentration ([2]; 180 mg, time 16): 127.63 | Serum noribogaine concentration ([2]; 180 mg, time 24): 97.34 | Serum noribogaine concentration ([2]; 180 mg, time 36): 59.50 | Serum noribogaine concentration ([2]; 180 mg, time 48): 43.75 | Serum noribogaine concentration ([2]; 180 mg, time 60): 33.69 | Serum noribogaine concentration ([2]; 180 mg, time 72): 23.06 | Serum noribogaine concentration ([2]; 180 mg, time 96): 13.04 | Serum noribogaine concentration ([2]; 180 mg, time 120): 3.37 | Serum noribogaine concentration ([2]; 180 mg, time 144): 1.61
